Measurements from patent US20110105393A1, “METHODS FOR PROMOTING STEM CELL PROLIFERATION AND SURVIVAL” (priority 2007, published 2011).

Experiments:
mTOR = mTOR phosphorylation in NSC cultures (Western blot); assay type: cell-based, mouse
Procedure: (§1) Cell culture: E13.5 cortical embryonic mouse CNS stem cells were grown as previously described (Johe, et al., Genes Dev 10, 3129-40, 1996). Cells were expanded in serum-free DMEM/F12 medium with N2 supplement and FGF2 (20 ng/ml) for 5 days under 5% oxygen conditions and were re-plated fresh or from frozen stocks at 1,000-10,000 cells per cm^2. FGF2 was included throughout the studies, unless otherwise stated. Adult rat (3-6 months old) or adult mouse (2-4 months old) SVZ NSC cultures were grown in the same medium as the fetal cultures.
Fetal NSCs in culture express Ang-1, and treatment (2 days) with Dll4 maintained it whereas CNTF reduced it. Ang-2 expression was maintained under these conditions. […] Ang-2 induced mTOR and STAT3-S727 phosphorylation, unlike Ang-1 (FIG. 2a). Ang-1, however, induced Akt phosphorylation.
Three characterized Tie-2 receptor antibodies were used to determine if the Tie-2 receptor was expressed in the immature neural precursor cells found in the SVZ of the adult brain. When ligand is bound, the Tie-2 receptor becomes phosphorylated. An antibody that recognizes the activated receptor (RnD Systems, AF2720) and another antibody that binds to a distinct site (Santa Cruz, sc-324) identified many positive cells in the subventricular zone of the adult rat brain. In regions that were more distant from the ventricle, Tie-2 was expressed predominantly on blood vessels and endothelial cells reacted with antibodies against the activated receptor. Precursor cells that proliferate in vitro can be readily derived from the fetal and adult brain. The homogeneity of these cell populations in attached culture and their potential to generate neurons and glia is supported by clonal analysis. […] This colony number assay measured the survival of precursor cells that could differentiate into neurons and glia (See, Table 1).

STAT3-Ser727 = STAT3-Ser727 phosphorylation in NSC cultures; assay type: cell-based, mouse
Procedure: Cell culture: E13.5 cortical embryonic mouse CNS stem cells were grown as previously described (Johe, et al., Genes Dev 10, 3129-40, 1996). Cells were expanded in serum-free DMEM/F12 medium with N2 supplement and FGF2 (20 ng/ml) for 5 days under 5% oxygen conditions and were re-plated fresh or from frozen stocks at 1,000-10,000 cells per cm^2. FGF2 was included throughout the studies, unless otherwise stated. […] Pharmacological treatments: Unless otherwise stated, the following concentrations were used: Dll4 and Ang-2 (in vitro, 500 ng/ml; in vivo 12.5 μg as a single injection), FGF2 (in vitro, 20 ng/ml), JAK inhibitor (in vitro, 200 nM; in vivo, 250 ng as a single injection), insulin (in vitro, 25 μg/ml; in vivo, 40 μg as a single injection), DAPT (1 μM), Fluorogold (0.5 μg). For the survival assays, compounds were added daily and Notch ligands every 2 days for the duration of the experiment. For the effects of kinase inhibitors on Notch activation, cells were pre-incubated for 1 h prior to Notch activation. […] Activation of the Notch receptor by addition of insulin or Dll4 was inhibited by DAPT, a γ-secretase inhibitor that blocks Notch cleavage. […] Insulin maintained STAT[…]727 phosphorylation levels, and acutely (1-h) induced it following a 16-h insulin withdrawal phase (FIG. 1c). […] Fetal NSCs in culture express Ang-1, and treatment (2 days) with Dll4 maintained it whereas CNTF reduced it. Ang-2 expression was maintained under these conditions. […] Ang-2 induced mTOR and STAT3-S727 phosphorylation, unlike Ang-1 (FIG. 2a). Ang-1, however, induced Akt phosphorylation.

adult mouse SVZ cultures = assay: Survival/generation of adult mouse SVZ NSC cultures (colony and cell number); assay type: cell-based
Procedure: as §1
Pharmacological treatments: Unless otherwise stated, the following concentrations were used: Dll4 and Ang-2 (in vitro, 500 ng/ml; in vivo 12.5 μg as a single injection), FGF2 (in vitro, 20 ng/ml), JAK inhibitor (in vitro, 200 nM; in vivo, 250 ng as a single injection), insulin (in vitro, 25 μg/ml; in vivo, 40 μg as a single injection), DAPT (1 μM), Fluorogold (0.5 μg). For the survival assays, compounds were added daily and Notch ligands every 2 days for the duration of the experiment. For the effects of kinase inhibitors on Notch activation, cells were pre-incubated for 1 h prior to Notch activation.
Hes3 mRNA is present in fetal NSC cultures under conditions that support their self-renewal but CNTF-induced differentiation (Bonni, A. et al., Science 278, 477-83, 1997; Rajan & McKay, J Neurosci 18, 3620-9, 1998): downregulates Hes3 message (Androutsellis-Theotokis, A. et al., Nature 442, 823-6, 2006). Knockout studies have shown a role of Hes3 in self-renewal (Hatakeyama, J. et al., Development 131, 5539-50, 2004). It was investigated if Hes3 mediates stem cell functions in vitro to assess its use as a functional NSC marker. Fetal (E13.5) cortical tissue was dissociated and magnetic sorting was used to isolate a cell population that expressed AC133, an established marker of NSCs (Uchida, N. et al., Proc Natl Acad Sci USA 97, 14720-5, 2000). Sorted (AC133+) cells expressed Hes3 and Sox2, another established NSC marker (Zappone, M. V. et al., Development 127, 2367-82, 2000). […] To investigate if Hes3 is a mediator of pro-survival signals for NSCs, adult mouse SVZ cultures (which respond strongly to pro-survival signals) were treated with insulin, Dll4, and a combination of the two.

[1] = wild-type adult mouse SVZ cultures

Row | Substance | mTOR phosphorylation (mTOR; NSC cultures, 0.5 μg/ml (FIG. 2a, Example 3)) | effect on mTOR (mTOR; Western blots, fetal neural cells (FIG. 10a, Example 9)) | STAT3-S727 phosphorylation (STAT3-Ser727; NSC cultures, 0.5 μg/ml (FIG. 2a)) | colony number and overall cell number (adult mouse SVZ cultures; cells from Hes3 null mice) | colony number and overall cell number (adult mouse SVZ cultures; [1]) | STAT3-Ser727 phosphorylation (STAT3-Ser727; acute (1-h) addition following a 16-h insulin withdrawal) | STAT3-Ser727 phosphorylation levels (STAT3-Ser727; continued presence in NSC culture)
1 | Ang-2: human angiopoietin-2 (623-AN) from R&D; antagonist for angiopoietin-1 at Tie2 | induced | no effect | induced |  |  |  | 
2 | Dll4: Notch ligand Delta-like 4; mouse Dll4 (1389-D4) from R&D |  |  |  | moderate (but significant) benefits | great increase |  | 
3 | insulin: insulin (Sigma, 19278), growth factor |  |  |  | moderate (but significant) benefits | great increase | induced | maintained
